According to US20240253033A1, “MICROFLUIDIC DETECTION SYSTEM WITH ADJUSTABLE FLOW CONTROL” (priority 2022, published 2024):
Blank lines part the entries; values can stand above or below the compound they belong to.

Key:
E coli MG1655 = E coli MG1655 spiked in urine
Method: To obtain spiked human samples, first human urine was centrifuged at 5000 rcf for 5 minutes to remove large particles. It was subsequently spiked with 5×10^5 CFU ml^−1 and mixed with a solution of Resazurin to a final concentration of 0.02%. No antibiotics were added for the control aliquots, 32 μg/mL Ampicillin was added for resistant aliquots and 16 μg/mL Kanamycin was added for susceptible aliquots. The aliquots were incubated at 37° C. different periods starting from 0 minutes incubation till 60 minutes with a time step of 5 minutes.
According to the Infectious Diseases Society of America (IDSA), 105 CFU ml^−1 and 102 CFU ml^−1 were spiked in-vivo in urine, serum, and nasal swab of donors to simulate urinary tract infection, wound infection, and pneumonia by MRSA, respectively. Human urine was spiked with different concentrations of E. coli (FIG. 32D). As a control the healthy human biofluids were screened as received.

S. pneumonia [1] = experiment: QolorAST minimum inhibitory concentration (MIC) test; format: cell-based, Streptococcus pneumoniae
Method: (§1) Acinetobacter baumannii, Enterococcus faecalis, Enterococcus faecium, Streptococcus agalactiae, Enterobacter cloacae, Klebsiella pneumoniae, Streptococcus pneumoniae, E coli MG1655, and E coli Trimethoprim resistant were streaked on LB miller agar overnight at 37° C. and resuspended in water aliquot. Next, the bacterial concentration was determined using optical density technique. Subsequently, aliquots of different concentrations were prepared for the antibiotic susceptibility testing experiments in CamHB growth media.
(§2) 5×10^5 CFU ml^−1 Oxacillin-resistant S. aureus aliquots were prepared using resazurin/oxacillin solution using different concentrations of oxacillin antibiotic (16 μg/mL, 32 μg/mL, and 64 μg/mL). 5×10^5 CFU ml^−1 Cipro.
(§3) A minimum inhibitory concentration (MIC) was performed to study the QolorAST broad applicability in detecting bacterial resistance profiles and ensuring timely and efficient antimicrobial theraby. […] The antibiotics cover major bacterial inhibition mechanisms as inhibition of protein synthesis, cell wall synthesis, and/or DNA synthesis.
(§4) QolorAST exploited two methodologies: Manual MIC (MA-MIC) and support vector machine MIC (SVM-MIC). […] The SVM-MIC was carried out with a rbf kernel that was optimized and trained to predict the color change of the preclinical images using our library of bacteria images collected under different conditions including images where color is changed, color transitioning, and no color change. The SVM successfully classified the condition's bacteria-antibiotic in the concentration range studied.

A. baumannii [2] = experiment: as above; format: cell-based, Acinetobacter baumannii
Method: as §1, §2, §3, §4

S. pneumonia [3] = experiment: Conventional broth microdilution (BMD) MIC; format: cell-based, Streptococcus pneumoniae
Method: (§5) For clinical MIC, bacteria were streaked on LB agar overnight and resuspended in a water aliquot. The aliquot was measured, and the bacteria concentration was adjusted to of 10^6 CFU ml^−1 in LB media. A 96 well plate with an antibiotic gradient from 128 μg/ml to 0.125 μg/ml in a 2-fold concentration dilution step was prepared with a positive control with no antibiotics. Next, the bacteria were introduced to each well of the 96 well plate for a final bacteria concentration of 5×10^5 CFU ml^−1. The well plates were cultured overnight the minimum inhibitory concentration was determined as the antibiotic concentration that didn't show any signs of bacterial growth.

S. agalactiae [4] = experiment: QolorAST minimum inhibitory concentration (MIC) test; format: cell-based, Streptococcus agalactiae
Method: as §1, §2, §3, §4

K. pneumonia [5] = experiment: as above; format: cell-based, Klebsiella pneumoniae
Method: as §1, §2, §3, §4

E. cloacae [6] = experiment: Conventional broth microdilution (BMD) MIC; format: cell-based, Enterobacter cloacae
Method: as §5

E. cloacae [7] = experiment: QolorAST minimum inhibitory concentration (MIC) test; format: cell-based, Enterobacter cloacae
Method: as §1, §2, §3, §4

K. pneumonia [8] = experiment: Conventional broth microdilution (BMD) MIC; format: cell-based, Klebsiella pneumoniae
Method: as §5

A. baumannii [9] = experiment: Conventional broth microdilution (BMD) MIC; format: cell-based, Acinetobacter baumannii
Method: as §5

S. agalactiae [10] = experiment: Conventional broth microdilution (BMD) MIC; format: cell-based, Streptococcus agalactiae
Method: as §5

MIC (E coli MG1655): 0.312 mL⁻¹ | resistance profile based on the CLSI MIC cut off values (E coli MG1655): susceptible
Compound: COc1cc(Cc2cnc(N)nc2N)cc(OC)c1OC [Trimethoprim]

Compound: Colistin
MA-MIC/SVM-MIC/MIC Category (S. pneumonia [1]): R/R/R* | QolorAST MIC Manual (MA-MIC) (S. pneumonia [1]): > 128 µg/mL | QolorAST MIC SVM (SVM-MIC) (S. pneumonia [1]): > 128 µg/mL | MA-MIC/SVM-MIC/MIC Category (A. baumannii [2]): R/R/R | QolorAST MIC Manual (MA-MIC) (A. baumannii [2]): 8 µg/mL | QolorAST MIC SVM (SVM-MIC) (A. baumannii [2]): 8 µg/mL | MIC (A. baumannii [2]; both manually and through SVM): 8 µg/mL | Broth Microdilution MIC (MIC) (S. pneumonia [3]): >128 | MA-MIC/SVM-MIC/MIC Category (S. agalactiae [4]): R/R/R* | QolorAST MIC Manual (MA-MIC) (S. agalactiae [4]): 128 µg/mL | QolorAST MIC SVM (SVM-MIC) (S. agalactiae [4]): > 128 µg/mL | resistance or susceptibility (S. agalactiae [4]): resistant | MA-MIC/SVM-MIC/MIC Category (K. pneumonia [5]): R/R/R | QolorAST MIC Manual (MA-MIC) (K. pneumonia [5]): 8 µg/mL | QolorAST MIC SVM (SVM-MIC) (K. pneumonia [5]): 8 µg/mL | Broth Microdilution MIC (MIC) (E. cloacae [6]): 4 | MA-MIC/SVM-MIC/MIC Category (E. cloacae [7]): R/R/R | QolorAST MIC Manual (MA-MIC) (E. cloacae [7]): 4 µg/mL | QolorAST MIC SVM (SVM-MIC) (E. cloacae [7]): 4 µg/mL | Broth Microdilution MIC (MIC) (K. pneumonia [8]): 8 | Broth Microdilution MIC (MIC) (A. baumannii [9]): 8 | Broth Microdilution MIC (MIC) (S. agalactiae [10]): 128
